# Read-outs that look alike come from different tables or passages of the source.
# Tests used:
# Strep. uberis SPU1 = assay: MIC against veterinary bacteria in vitro; settings: Streptococcus uberis, SPU1, 18 h
# Procedure: (§1) The activity of the compounds of the Examples against various veterinarily important bacteria, was assayed in vitro using two-fold serial dilutions in Diagnostic Sensitivity Test Agar inoculated with 10^4 organisms.
# Staph. aureus Oxford = assay: MIC against veterinary bacteria in vitro; settings: Staphylococcus aureus, 18 h
# Procedure: as §1
# M. suipneumoniae LABER = assay: MIC against mycoplasma in vitro; assay type: cell-based; settings: Mesomycoplasma hyopneumoniae, 144 h
# [1] = test system: Staph. aureus B4 (pen. resistant); assay: MIC against veterinary bacteria in vitro; settings: Staphylococcus aureus, 18 h
# Procedure: as §1
# Strep. faecalis I = assay: MIC against human bacteria in vitro; assay type: cell-based; settings: Enterococcus faecalis; Strep. faecalis I; 5% chocolated horse blood agar, 18 hours; read-out: MIC
# [2] = test system: M. suipneumoniae J2206/183^b; assay: MIC against mycoplasma in vitro; assay type: cell-based; settings: Mesomycoplasma hyopneumoniae, 144 h
# K. aerogenes A = assay: MIC against human bacteria in vitro; assay type: cell-based; settings: Klebsiella aerogenes; K. aerogenes A; 5% chocolated horse blood agar, 18 hours; read-out: MIC
# Bord. bronchiseptica B08 = assay: MIC against veterinary bacteria in vitro; settings: Bordetella bronchiseptica, B08, 18 h
# Procedure: as §1
# M. hyorhinis ATCC 23234 = assay: MIC against mycoplasma in vitro; assay type: cell-based; settings: Mesomycoplasma hyorhinis, ATCC23234, 144 h
# Bacillus subtilis 6633 = assay: MIC against human bacteria in vitro; assay type: cell-based; settings: Bacillus subtilis 6633; 5% chocolated horse blood agar, 18 hours; read-out: MIC
# [3] = test system: Corynebacterium pyogenes CY1; assay: MIC against veterinary bacteria in vitro; settings: CY1, 18 h
# Procedure: as §1
# M. pneumoniae ATCC 15492 = assay: MIC against mycoplasma in vitro; assay type: cell-based; settings: Mycoplasmoides pneumoniae, ATCC15492, 144 h
# [4] = test system: M. hyosynoviae ATCC 25591; assay: MIC against mycoplasma in vitro; assay type: cell-based; settings: 144 h
# [5] = test system: Haemophilus influenzae Q1; assay: MIC against human bacteria in vitro; assay type: cell-based
# Bord. bronchiseptica B09 = assay: MIC against veterinary bacteria in vitro; settings: Bordetella bronchiseptica, B09, 18 h
# Procedure: as §1
# M. suipneumoniae HK(2) = assay: MIC against mycoplasma in vitro; assay type: cell-based; settings: Mesomycoplasma hyopneumoniae, 144 h
# Strep. spp. 64/848-C = assay: MIC against human bacteria in vitro; assay type: cell-based; settings: Strep. spp. 64/848-C; 5% chocolated horse blood agar, 18 hours; read-out: MIC
# Strep. dysgalactiae SPD1 = assay: MIC against veterinary bacteria in vitro; settings: Streptococcus dysgalactiae, SPD1, 18 h
# Procedure: as §1
# S. typhimurium S18 = assay: MIC against veterinary bacteria in vitro; settings: Salmonella enterica, TYPHIMURIUM, 18 h
# Procedure: as §1
# E. coli ESS = assay: MIC against human bacteria in vitro; assay type: cell-based; settings: Escherichia coli; E. coli ESS; 5% chocolated horse blood agar, 18 hours; read-out: MIC
# M. bovis NCTC 10131 = assay: microbe, parasite or virus in culture; assay type: cell-based; settings: NCTC10131, 144 h
# [6] = test system: Pasteurella multocida 1633; assay: MIC against human bacteria in vitro; assay type: cell-based; settings: Pasteurella multocida 1633; 5% chocolated horse blood agar, 18 hours; read-out: MIC
# [7] = test system: Erysipelothrix rhusiopathiae NCTC 8163; assay: MIC against veterinary bacteria in vitro; settings: Erysipelothrix rhusiopathiae, NCTC8163, 18 h
# Procedure: as §1
# [8] = M. suipneumoniae LABER, 6 days, 37° C., read-out: MIC
# [9] = M. suipneumoniae J2206/183^b, 6 days, 37° C., read-out: MIC
# [10] = M. hyorhinis ATCC 23234, 6 days, 37° C., read-out: MIC
# [11] = M. pneumoniae ATCC 15492, 6 days, 37° C., read-out: MIC
# [12] = M. hyosynoviae ATCC 25591, 6 days, 37° C., read-out: MIC
# [13] = Haemophilus influenzae Q1, 5% chocolated horse blood agar, 18 hours, read-out: MIC
# [14] = M. suipneumoniae HK(2), 6 days, 37° C., read-out: MIC
SMILES,MIC (Strep. uberis SPU1) [µg/mL],MIC (Staph. aureus Oxford) [µg/mL],MIC [1] [µg/mL],MIC (Strep. faecalis I) [µg/mL],"MIC [2, 9] [µg/mL]",MIC (K. aerogenes A) [µg/mL],MIC (Bord. bronchiseptica B08) [µg/mL],MIC (Bacillus subtilis 6633) [µg/mL],MIC [3] [µg/mL],MIC (M. pneumoniae ATCC 15492; [11]) [µg/mL],"MIC [5, 13] [µg/mL]",MIC (Bord. bronchiseptica B09) [µg/mL],MIC (M. suipneumoniae HK(2); [14]) [µg/mL],MIC (Strep. spp. 64/848-C) [µg/mL],MIC (Strep. dysgalactiae SPD1) [µg/mL],MIC (S. typhimurium S18) [µg/mL],MIC (E. coli ESS) [µg/mL],MIC (M. bovis NCTC 10131) [µg/mL],MIC [6] [µg/mL],MIC [7] [µg/mL],further results
"C/C(=C\c1nc(-c2ccccc2)c(-c2ccccc2)o1)C[C@@H]1OC[C@H](C[C@@H]2O[C@H]2[C@@H](C)[C@H](C)O)[C@@H](O)[C@H]1O [Example 41, 4,5-Diphenyl-2-(1-normon-2-yl)oxazole A]",10,40,40,> 100,> 10,> 100,> 80,100,40,> 10,10,> 80,> 10,100,20,> 80,50,2.5,25,> 80,"MIC (M. suipneumoniae LABER; [8]): > 10 µg/mL; MIC (M. hyorhinis ATCC 23234; [10]): > 10 µg/mL; MIC [4, 12]: > 10 µg/mL"
"C/C(=C\c1ncc(-c2ccccc2)o1)C[C@@H]1OC[C@H](C[C@@H]2O[C@H]2[C@@H](C)[C@H](C)O)[C@@H](O)[C@H]1O [Example 1, 2-(1-normon-2-yl)-5-phenyloxazole A]",0.625,1.25,1.25,≥ 100,1,> 100,80,2.5,80,2.5,1,20,1,2.5,0.625,> 80,10,≤ 0.01,10,80,MIC (M. suipneumoniae LABER): 0.5 µg/mL; MIC (M. hyorhinis ATCC 23234): 0.5 µg/mL; MIC [4]: 0.5 µg/mL
"C/C(=C\c1ncc(-c2ccc([S+](C)[O-])cc2)o1)C[C@@H]1OC[C@H](C[C@@H]2O[C@H]2[C@@H](C)[C@H](C)O)[C@@H](O)[C@H]1O (some centres unmarked) [Example 11, 5-p-Methylsulphinylphenyl-2-(1-normon-2-yl) oxazole A]",0.312,2.5,5,> 128,0.25,> 128,> 80,4,> 80,0.5,2,40,0.25,2,1.25,> 80,128,≤ 0.01,8,> 80,"MIC (M. suipneumoniae LABER; [8]): 0.1 µg/mL; MIC (M. hyorhinis ATCC 23234; [10]): 0.1 µg/mL; MIC [4, 12]: 0.25 µg/mL"
C/C(=C\c1ncc(-c2ccc(S(C)(=O)=O)cc2)o1)C[C@@H]1OC[C@H](C[C@@H]2O[C@H]2[C@@H](C)[C@H](C)O)[C@@H](O)[C@H]1O [Example 10],0.625,2.5,5,> 128,,> 128,> 80,2,> 80,,,40,,4,2.5,> 80,8,0.01,8,> 80,"MIC (M. suipneumoniae LABER): 0.025 µg/mL; MIC [2]: 0.05 µg/mL; MIC (M. hyorhinis ATCC 23234): 0.025 µg/mL; MIC (M. pneumoniae ATCC 15492): 0.1 µg/mL; MIC [4]: 0.05 µg/mL; MIC ([5]; Haemophilus influenzae, Q1, 18 h): 1 µg/mL; MIC (M. suipneumoniae HK(2)): 0.05 µg/mL"

# From patent US5041567A, “Antibacterial monic acid derivatives” (Beecham Group plc, priority 1982, dated 1991)
